# Test results published in PubChem BioAssay AID1996.
# Details: buffer; pH 7.4; 200.0 µM
row,solubility kinetic,SMILES
1,6.4 µg/mL,Cc1ccnc(NC(=O)c2cnc(Cl)c(Cl)c2)c1
2,< 0.3 µg/mL,C/C(=N\OCc1ccc(C#N)cc1)c1ccccc1
3,> 48 µg/mL,Cc1cc(NC(=O)C2CC(=O)N(c3ccccc3Cl)C2)no1 (stereo unspecified)
4,2.8 µg/mL,CC(C)C(=O)NC(c1ccc(Cl)cc1Cl)c1ccc2cccnc2c1O (stereo unspecified)
5,0.5 µg/mL,CCOc1ccccc1NC(=O)NC1CCCc2ccccc21 (stereo unspecified)
6,7.1 µg/mL,CC(OC(=O)C1=Cc2ccccc2OC1)C(=O)NCc1ccco1 (stereo unspecified)
7,1.7 µg/mL,NS(=O)(=O)c1ccc(CNC(=O)c2cc(=O)c3ccccc3o2)cc1
8,> 64.4 µg/mL,NS(=O)(=O)c1cccc(NC(=O)CSc2nnc(C3CC3)n2-c2ccccc2)c1
9,> 41.7 µg/mL,CCOC(=O)c1ccc(NC(=O)N2CCOCC2)cc1
10,52 µg/mL,CCOC(=O)C1=C(O)C(=O)N(c2ccccc2)C1c1cccc([N+](=O)[O-])c1 (stereo unspecified)
11,> 50.5 µg/mL,CC(=O)NCCc1nc2cc(NC(=O)c3ccccc3)ccc2n1C
12,2.1 µg/mL,CC1CCN(C(=O)CN2C(=O)c3cccc4cccc(c34)C2=O)CC1
13,> 42.5 µg/mL,NC(=O)COC(=O)c1cc([N+](=O)[O-])ccc1NCCO
14,48.9 µg/mL,CN(c1ccc(C(=O)NC2CCCC2)cc1)S(=O)(=O)c1ccccc1
15,37.3 µg/mL,CN(C)c1ccc(CC2C(=O)Nc3ccccc32)cc1 (stereo unspecified)
16,> 45.2 µg/mL,O=C(Cn1nc(Cl)nc1Cl)c1ccc([N+](=O)[O-])cc1
17,> 50.3 µg/mL,COc1ccc(N(CC(=O)Nc2cccnc2)S(C)(=O)=O)cc1
18,> 41.1 µg/mL,CC(=O)c1ccccc1Oc1ncnc(N)c1[N+](=O)[O-]
19,44.1 µg/mL,CN1CCN(/C=C(\C#N)S(=O)(=O)c2ccc(Cl)cc2)CC1
20,> 49.4 µg/mL,Cc1c(C(=O)O)cccc1-c1ccc(/C=C2\SC(=O)NC2=O)o1
21,52.3 µg/mL,O=C(CCNC(=O)c1ccc(Br)cc1)Nc1ncccc1O

row,solubility kinetic,SMILES
1,37.1 µg/mL,Cc1ccc(C(=O)Nc2nc(-c3ccccn3)cs2)o1
2,4.1 µg/mL,COC(=O)c1ccc(Nc2c([N+](=O)[O-])c(=O)oc3ccccc23)cc1
3,23.9 µg/mL,Nc1ccccc1C(=O)N1CCC(O)(c2ccc(Cl)cc2)CC1
4,5.7 µg/mL,Cc1ccc(SCC(=O)NCCCc2ccccc2)cc1
5,2.1 µg/mL,COc1ccccc1NS(=O)(=O)c1cc(NC(=O)c2ccc(Cl)nc2)ccc1N1CCCC1
6,> 40.7 µg/mL,CC(CC(=O)NCc1ccc(F)cc1)c1ccccc1 (stereo unspecified)
7,5 µg/mL,CCOC(=O)c1c(NC(=O)c2ccncc2)sc(C)c1C
8,< 0.2 µg/mL,CCOc1ccccc1Nc1ccc2nonc2c1[N+](=O)[O-]
9,0.7 µg/mL,CC(C)n1c(NCc2ccc(Cl)cc2)nc2ccccc21
10,14.1 µg/mL,O=C(COc1ccccc1F)Nc1ccc2c(c1)OCCO2
11,42.2 µg/mL,COc1cccc(NC(=O)C(=O)NCCCn2ccnc2)c1
12,< 0.4 µg/mL,O=C(Nc1cccc2ncccc12)C(c1ccccc1)c1ccccc1
13,35.5 µg/mL,O=C(COC(=O)c1ccc(OC(F)F)cc1)NCc1cccs1
14,> 42.2 µg/mL,O=C(CCCC(=O)c1ccccc1)NCc1ccccc1
15,47.3 µg/mL,COc1cccc(CC(=O)NCCCSc2ccccc2)c1
16,> 57.9 µg/mL,C/C(=N/NC(=O)CN1CCN(Cc2ccccc2Cl)CC1)c1cccnc1
17,12.9 µg/mL,O=C1CN(C(=O)/C=C/c2ccccc2F)c2ccccc2N1
18,45.8 µg/mL,CCN(Cc1ccccc1)C(=O)c1ccc(SC)cc1OC
19,> 34.5 µg/mL,CN1CCN(C(=O)/C=C/c2ccccc2)CC1
20,44.3 µg/mL,COc1ccc(C)cc1Nc1ccc(C(=O)O)cc1[N+](=O)[O-]
21,30 µg/mL,COc1cccc(CN2C(=O)c3ccccc3S2(=O)=O)c1

row,solubility kinetic,SMILES
1,> 45.4 µg/mL,CCOc1ccc(NC(=O)CSc2ccccc2N)cc1
2,< 0.4 µg/mL,Cc1ccc(NC(=O)Cn2cc(C(=O)C3CC3)c3ccccc32)cc1
3,24.9 µg/mL,CC(C)c1ccc(NC(=O)C2CSC3(C)CCC(=O)N23)cc1 (stereo unspecified)
4,35.4 µg/mL,Cc1ccccc1N1C(=O)Cc2ccccc2C1=O
5,< 0.3 µg/mL,O=C(Nc1ccc([N+](=O)[O-])cc1)c1cc(Cl)sc1Cl
6,9.8 µg/mL,O=C(/C=C/c1cccnc1)c1ccc([N+](=O)[O-])cc1
7,> 47 µg/mL,COc1cccc(C(=O)NCCCNC(=O)c2cccnc2)c1
8,> 45.2 µg/mL,CCOC(=O)NC(=O)COC(=O)c1cccc2ccccc12
9,42.2 µg/mL,Cc1ccc(-c2nc3ccc(Cl)cc3c(=O)n2O)cc1
10,40.9 µg/mL,COc1cc(/C=C/C(=O)Nc2cccnc2)cc(OC)c1OC
11,> 52.1 µg/mL,CCNS(=O)(=O)c1ccc(CCC(=O)NCc2ccncc2)cc1
12,45.4 µg/mL,CCS(=O)(=O)Nc1cccc(-c2nc3cccnc3s2)c1
13,> 34.1 µg/mL,O=C(Cc1ccccc1)N/N=C/c1ccc[nH]1
14,24.8 µg/mL,O=C(Cc1cccs1)NCc1ccccc1Br
15,< 0.3 µg/mL,COc1ccc2nc(NC(=O)c3cccs3)sc2c1
16,> 40.1 µg/mL,O=C(Nc1cccnc1)c1cc(Cl)ccc1Cl
17,> 44.3 µg/mL,O=S(=O)(NC(=S)c1ccccc1)c1ccc(F)cc1
18,20 µg/mL,N#C/C(=C\c1ccc(O)c(O)c1)C(=O)Nc1cccc2ncccc12
19,14.6 µg/mL,O=C(Cc1ccccc1[N+](=O)[O-])Nc1ccc2c(c1)OCO2
20,18.4 µg/mL,N#Cc1cccc(C#N)c1Oc1ccc(S(=O)(=O)Nc2ccccc2)cc1
21,> 68.2 µg/mL,O=C(CSc1ccccc1C(=O)N1CCN(c2ccc([N+](=O)[O-])cc2)CC1)N1CCCC1

# The remaining lines, values behind:
row,SMILES,solubility kinetic
1,O=C1Nc2ccccc2N2CCCC12 (stereo unspecified),27.5 µg/mL
2,O=C(CSc1nnc(Nc2ccccc2F)s1)NC1CCS(=O)(=O)C1 (stereo unspecified),> 60.4 µg/mL
3,Cc1cc(Br)ccc1NC(=O)CN(C)C(=O)C1=COCCO1,> 55.4 µg/mL
4,Cc1ccccc1OCC(O)CN1CCCCC1.Cl (stereo unspecified),> 42.9 µg/mL
5,CC1(NC(=O)Cc2csc(-c3ccc(Cl)cc3)n2)CCS(=O)(=O)C1 (stereo unspecified),> 57.7 µg/mL
6,Cc1ccsc1-c1nc(CN2CCCC2c2ccc(F)cc2)c(C)o1 (stereo unspecified),14.9 µg/mL
7,O=C1C(Cl)=C(N2CCCC2)C(=O)N1c1ccc(F)cc1,7.4 µg/mL
8,COc1ccc2nc(C)cc(NCc3ccc(F)cc3)c2c1,> 44.5 µg/mL
9,COc1ccccc1-n1cc(-c2ccccc2)[nH]c1=S,3 µg/mL
10,O=c1cc(C(F)(F)F)[nH]c2c(OC(F)(F)F)cccc12,> 44.6 µg/mL
11,CC(=O)Nc1ccc(C(F)(F)F)cc1Cl,23.1 µg/mL
12,Cc1ccc(C(=O)N2CCCCC2)cc1S(=O)(=O)N1CCCC1,> 50.5 µg/mL
13,Cc1cccc(N2CC(C(=O)OCC(=O)Nc3sccc3C(N)=O)CC2=O)c1C (stereo unspecified),6.5 µg/mL
14,Cc1cc(Cl)ccc1NS(=O)(=O)c1c(C)[nH]c(=O)[nH]c1=O,> 49.5 µg/mL
15,CN1C(=O)c2ccc(NC(=O)C3CC3)cc2C1=O,33.4 µg/mL
16,CCOC(=O)C1CCCN(CC(=O)Nc2nccs2)C1 (stereo unspecified),> 44.6 µg/mL
17,Nc1c(NCCc2ccccc2)c2ccccc2oc1=O,> 42 µg/mL
18,O=C(NCCc1c[nH]c2ccccc12)C(=O)NCC1CCCO1 (stereo unspecified),9 µg/mL
19,CCN1CCCC1CNC(=O)c1cc2cc(OC)c(OC)cc2[nH]1 (stereo unspecified),> 49.7 µg/mL
20,O=C(CSC(=S)N1CCCC1)c1ccccc1,< 0.6 µg/mL

row,SMILES,solubility kinetic
1,COc1cc(N)c(Cl)cc1C(=O)OCC(=O)NCc1cccs1,20.6 µg/mL
2,CCN1CCN(c2ncnc3sc4c(c23)CCC(C)C4)CC1 (stereo unspecified),26.4 µg/mL
3,N/C(COc1ccc(Cl)cc1Cl)=N\O,28.8 µg/mL
4,CCC1(CC)N=C(c2ccccc2)C(=S)N1,> 34.9 µg/mL
5,Cc1ccccc1NC(=O)NCC1CCN(C(=O)OC(C)(C)C)CC1,> 52.1 µg/mL
6,Nc1nccc(-c2cccs2)n1,> 26.6 µg/mL
7,Cc1ccc(C(C)C)c(OCC(=O)OCC(=O)NC2CC2)c1,> 45.8 µg/mL
8,COC(=O)c1c(-c2ccccc2)c[nH]c1C,32 µg/mL
9,O=C1NC(=Nc2ccccc2)CS1,> 28.8 µg/mL
10,COc1ccc(CNC(=O)CC23CC4CC(CC(C4)C2)C3)cc1,1.6 µg/mL
11,NS(=O)(=O)c1ccc(S(=O)(=O)N2CCN(C3CCCC3)CC2)cc1,47.8 µg/mL
12,C=CCCCCCCCCC(=O)Nc1ncccn1,6.8 µg/mL
13,Cc1cc(C)c(-c2c(O)c3cccnc3n(C)c2=O)c(C)c1,43.4 µg/mL
14,CC(=O)Nc1cccc(OCCCNC(=O)C2CCC2)c1,> 43.6 µg/mL
15,O=C1NC(=O)C2(CCCCCCCCCCC2)N1,1.5 µg/mL
16,Cc1ccc(C)n1CCN1CCN(S(=O)(=O)c2ccc(F)cc2F)CC1,26.1 µg/mL
17,Cc1noc(NS(=O)(=O)c2ccc(NC(=O)C(C)C)cc2)c1C,> 50.6 µg/mL
18,CCOc1ccc(CSC(=N)N)cc1Cl.Cl,> 42.2 µg/mL
19,CN(C)c1ncnc(N(C)C)c1[N+](=O)[O-],> 31.7 µg/mL
20,COc1cc2cc(NC(C)=O)cc(NCc3ccccc3)c2cc1OC,4.2 µg/mL

row,SMILES,solubility kinetic
1,CCC1(C)Cc2nc(Cl)c(C#N)cc2CO1 (stereo unspecified),34.2 µg/mL
2,Cc1c(O)ccc(C(=O)CN2CCN(c3ccccc3F)CC2)c1O,13.7 µg/mL
3,COc1ccc2nc(C)cc(NCCN3CCOCC3)c2c1,42.3 µg/mL
4,COc1cc(OC)c(C2CC(=O)N3CN(C)CSC3=C2C#N)cc1OC (stereo unspecified),43.3 µg/mL
5,CCOC(=O)Cc1csc(NC(=O)CSc2nc(C)cc(C)n2)n1,> 55 µg/mL
6,CC1CCC2(CC1)NC(=O)N(CC(=O)N1CC(C)CC(C)C1)C2=O (stereo unspecified),15.8 µg/mL
7,Cc1c(C(=O)NC2CCOC2)oc2c(F)cccc12 (stereo unspecified),> 39.5 µg/mL
8,CC1CCCN(Cc2nc(Cc3ccccc3Cl)no2)C1 (stereo unspecified),27 µg/mL
9,O=C(O)CN1C(=O)C(=O)N(Cc2ccc(Cl)c(Cl)c2)C1=O,46.1 µg/mL
10,CCN(CC)CCCNc1nc(C)cc(COC)c1C#N,> 43.6 µg/mL
11,CCCn1ccc(O)c(Cc2ccc(Cl)cc2)c1=O,7.3 µg/mL
12,O=C(CSC(=S)N1CCOCC1)Nc1ncc2c(n1)CCCC2=O,54.7 µg/mL
13,O=C1CNC(=S)N1Cc1ccc(F)cc1,> 33.6 µg/mL
14,Cc1[nH]c2ccccc2c1C(=O)C(=O)N1CCOCC1,> 40.8 µg/mL
15,CCOP(=O)(OCC)C(NC(=O)Nc1ccc(C)cc1)C(N)=O (stereo unspecified),> 51.5 µg/mL
16,Cc1ccc2nc(C)c3c(c2c1)SCC3,11.3 µg/mL
17,CCc1ccc2c(CN3CCOCC3)cc(=O)oc2c1,> 41 µg/mL
18,CC1CC(NC(=O)/C=C/C(=O)O)CC(C)(C)C1 (stereo unspecified),> 35.9 µg/mL
